The term melting point denotes the temperature, or range, at which the solid turns liquid.

The subject of one series is weeds. Kind of series: Pre-emergence test (Example A), activity against weeds. In kind it is in vivo. Conditions: soil sprayed about 24 hours after sowing, rated after three weeks. As to the method: (§1) Pre-emergence Test Solvent: 5 parts by weight of acetone Emulsifier: 1 part by weight of alkylaryl polyglycol ether To produce a suitable preparation of active compound, 1 part by weight of active compound is mixed with the stated amount of solvent, the stated amount of emulsifier is added and the concentrate is diluted with water to the desired concentration. Seeds of the test plants are sown in normal soil. After approximately 24 hours, the soil is sprayed with the preparation of the active compound in such a way as to apply the particular amount of active compound desired per unit area. The concentration of the spray liquor is chosen so that the amount of active compound desired in each case is applied in 1000 liter of water per hectare. After three weeks, the degree of damage to the plants is rated in % damage in comparison with the development of the untreated control. The figures denote: [table]
Consider `CCOC(=O)C(C)Oc1ccc(Oc2cc(-c3nn(C)c(OC(F)F)c3Br)c(F)cc2C#N)cc1` (stereo not shown) [Example 1, ethyl 2-[4-[2-cyano-5-[4-bromo-5-(difluoromethoxy)-1-methyl-1H-pyrazo-3-yl]-4-fluoro-phenoxy]-phenoxy]-propionate], for which the “activity against weeds (degree of damage)” value was “strong activity against weeds”.

In a further series the test system is weeds. Kind of series: Post-emergence test (Example B), activity against weeds. The series is classed as in vivo. To be noted: test plants 5-15 cm sprayed, rated after three weeks. As to the method:
Post-emergence Test Solvent: 5 parts by weight of acetone Emulsifier: 1 part by weight of alkylaryl polyglycol ether To produce a suitable preparation of active compound, 1 part by weight of active compound is mixed with the stated amount of solvent, the stated amount of emulsifier is added and the concentrate is diluted with water to the desired concentration. Test plants which have a height of 5-15 cm are sprayed with the preparation of the active compound in such a way as to apply the particular amounts of active compound desired per unit area. The concentration of the spray liquor is chosen so that the amounts of active compound desired in each case are applied in 1000 l of water/ha. After three weeks, the degree of damage to the plants is rated in % damage in comparison with the development of the untreated control. The figures denote: 0%=no effect (like untreated control) 100%=total destruction
For `CCOC(=O)C(C)Oc1ccc(Oc2cc(-c3nn(C)c(OC(F)F)c3Br)c(F)cc2C#N)cc1` (stereo not shown) [Example 1, ethyl 2-[4-[2-cyano-5-[4-bromo-5-(difluoromethoxy)-1-methyl-1H-pyrazo-3-yl]-4-fluoro-phenoxy]-phenoxy]-propionate], the “activity against weeds (degree of damage)” value is “strong activity against weeds”.

A further series relates to crop plants, such as, for example, barley, wheat, maize and soya. Kind of series: Pre-emergence test (Example A), compatibility with crop plants. In kind it is in vivo. Conditions: rated after three weeks. As to the method:
as §1
Consider `CCOC(=O)C(C)Oc1ccc(Oc2cc(-c3nn(C)c(OC(F)F)c3Br)c(F)cc2C#N)cc1` (stereo not shown) [Example 1, ethyl 2-[4-[2-cyano-5-[4-bromo-5-(difluoromethoxy)-1-methyl-1H-pyrazo-3-yl]-4-fluoro-phenoxy]-phenoxy]-propionate], for which the “compatibility with crop plants” value is on record as “good compatibility with crop plants”.

Test system in the next series: not given
Assay: not given
Conditions: not given
Molecule `Cn1nc(-c2cc(Oc3ccccc3)c(C#N)cc2F)c(Cl)c1C(F)(F)F` [Example 2, 4-chloro-3-(4-cyano-2-fluoro-5-phenoxyphenyl)-1-methyl-5-trifluoromethyl-1H-pyrazole] came in with a melting point of 123 °C.

For `CCOC(=O)C(C)Oc1ccc(Oc2cc(-c3nn(C)c(OC(F)F)c3Br)c(F)cc2C#N)cc1` (stereo not shown) [Example 1, ethyl 2-[4-[2-cyano-5-[4-bromo-5-(difluoromethoxy)-1-methyl-1H-pyrazo-3-yl]-4-fluoro-phenoxy]-phenoxy]-propionate], the melting point worked out at 60 °C.

Test system in a further series: not listed separately
Kind of series: log P determination by HPLC, reversed-phase column (EEC Directive 79/831 Annex V.A8). The series is classed as physicochemical. To be noted: reversed-phase C 18, 43° C., acidic range: 0.1% aqueous phosphoric acid, acetonitrile, gradient 10% to 90% (data labelled a)). As to the method:
The log P values given in Table 1 were determined in accordance with the EEC Directive 79/831 Annex V.A8 by HPLC (High Performance Liquid Chromatography) using a reversed-phase column (C 18). Temperature: 43° C. (a) Mobile phases for the determination in the acidic range: 0.1% aqueous phosphoric acid, acetonitrile; linear gradient from 10% acetonitrile to 90% acetonitrile—the corresponding data are labelled a) in Table 1. (b) Mobile phases for the determination in the neutral range: 0.01 molar aqueous phosphate buffer solution, acetonitrile; linear gradient from 10% acetonitrile to 90% acetonitrile—the corresponding data are labelled b) in Table 1. The calibration was carried out using unbranched alkan-2-ones (having from 3 to 16 carbon atoms) whose log P values are known (determination of the log P values by the retention times by linear interpolation between two successive alkanones).
Turning to `Cn1nc(-c2cc(Oc3ccccc3Cl)c(C#N)cc2F)c(Cl)c1OC(F)F` [Example 67], the “log P” value is given as “logP: 4.28^a)”.

For the molecule `Cc1ccc(Cl)c(Oc2cc(-c3nn(C)c(OC(F)F)c3Cl)c(F)cc2C#N)c1` [Example 125], the “log P” value is listed as “logP: 4.59^a)”.

On to `Cn1nc(-c2cc(Oc3ccc(F)cc3)c(C#N)cc2F)c(Cl)c1OC(F)F` [Example 72], for which the “log P” value is on record as “logP: 4.13^a)”.

`Cn1nc(-c2cc(Oc3cccc(F)c3F)c(C#N)cc2F)c(Cl)c1OC(F)F` [Example 117]: the “log P” value was “logP: 4.13^a)”.

As to `CN(C)Cc1ccccc1Oc1cc(-c2nn(C)c(OC(F)F)c2Cl)c(F)cc1C#N` [Example 121], the “log P” value is given as “logP: 2.03^a)”.

Consider `Cn1nc(-c2cc(Oc3cccc(Cl)c3)c(C#N)cc2F)c(Cl)c1OC(F)F` [Example 68], for which the “log P” value is listed as “logP: 4.49^a)”.

Take `CC(=O)c1ccc(Oc2cc(-c3nn(C)c(OC(F)F)c3Cl)c(F)cc2C#N)cc1` [Example 84]: the “log P” value is reported as “logP: 3.66^a)”.

As for `Cn1nc(-c2cc(Oc3ccc(Cl)c(Cl)c3)c(C#N)cc2F)c(Cl)c1OC(F)F` [Example 118], the “log P” value is “logP: 4.89^a)”.

As to `CC(C)Oc1ccccc1Oc1cc(-c2nn(C)c(OC(F)F)c2Cl)c(F)cc1C#N` [Example 119], the “log P” value is listed as “logP: 4.55^a)”.

For the molecule `Cn1nc(-c2cc(Oc3ccc(OC(F)(F)F)cc3)c(C#N)cc2F)c(Cl)c1OC(F)F` [Example 76], the “log P” value is listed as “logP: 4.70^a)”.

In the case of `CN(C)c1cccc(Oc2cc(-c3nn(C)c(OC(F)F)c3Cl)c(F)cc2C#N)c1` [Example 116], the “log P” value is “logP: 4.38^a)”.

On to `Cn1nc(-c2cc(Oc3ccc(Cl)cc3)c(C#N)cc2F)c(Cl)c1OC(F)F` [Example 69], for which the “log P” value is given as “logP: 4.49^a)”.

As for `Cn1nc(-c2cc(Oc3cccc(C(F)(F)F)c3)c(C#N)cc2F)c(Cl)c1OC(F)F` [Example 51], the “log P” value is reported as “logP: 4.55^a)”.

For `CN(C)C(=O)c1ccccc1Oc1cc(-c2nn(C)c(OC(F)F)c2Cl)c(F)cc1C#N` [Example 115], the “log P” value is reported as “logP: 3.20^a)”.

As to `COc1ccccc1Oc1cc(-c2nn(C)c(OC(F)F)c2Cl)c(F)cc1C#N` [Example 59], the “log P” value is on record as “logP: 3.98^a)”.

As to `Cc1cccc(Oc2cc(-c3nn(C)c(OC(F)F)c3Cl)c(F)cc2C#N)c1` [Example 57], the “log P” value is given as “logP: 4.43^a)”.

With `COc1ccc(Oc2cc(-c3nn(C)c(OC(F)F)c3Cl)c(F)cc2C#N)cc1` [Example 61], the “log P” value is listed as “logP: 4.05^a)”.

As for `COc1cccc(Oc2cc(-c3nn(C)c(OC(F)F)c3Br)c(F)cc2C#N)c1OC` [Example 112], the “log P” value is listed as “logP: 3.80^a)”.

With `Cc1ccc(Oc2cc(-c3nn(C)c(OC(F)F)c3Cl)c(F)cc2C#N)cc1C` [Example 120], the “log P” value is on record as “logP: 4.74^a)”.

On to `Cn1nc(-c2cc(Oc3cccc(OC(F)(F)F)c3)c(C#N)cc2F)c(Cl)c1OC(F)F` [Example 123], for which the “log P” value is “logP: 4.72^a)”.

Turning to `COc1cccc(Oc2cc(-c3nn(C)c(OC(F)F)c3Cl)c(F)cc2C#N)c1` [Example 60], the “log P” value is “logP: 4.13^a)”.

Turning to `CCN(CC)c1cccc(Oc2cc(-c3nn(C)c(OC(F)F)c3Cl)c(F)cc2C#N)c1` [Example 122], the “log P” value was “logP: 4.40^a)”.

Regarding `Cn1nc(-c2cc(Oc3ccc(C(F)(F)F)cc3)c(C#N)cc2F)c(Cl)c1OC(F)F` [Example 52], the “log P” value is listed as “logP: 4.59^a)”.

As for `Cn1nc(-c2cc(Oc3cccc(F)c3)c(C#N)cc2F)c(Cl)c1OC(F)F` [Example 71], the “log P” value was “logP: 4.17^a)”.

`Cn1nc(-c2cc(Oc3ccccc3F)c(C#N)cc2F)c(Cl)c1OC(F)F` [Example 70]: the “log P” value is reported as “logP: 4.02^a)”.

As for `COc1cccc(Oc2cc(-c3nn(C)c(OC(F)F)c3Cl)c(F)cc2C#N)c1OC` [Example 124], the “log P” value is on record as “logP: 3.98^a)”.

As for `Cc1ccc(Oc2cc(-c3nn(C)c(OC(F)F)c3Cl)c(F)cc2C#N)cc1` [Example 58], the “log P” value is given as “logP: 4.45^a)”.

`Cc1ccccc1Oc1cc(-c2nn(C)c(OC(F)F)c2Cl)c(F)cc1C#N` [Example 56]: the “log P” value is “logP: 4.40^a)”.

Turning to `COc1ccc(Oc2cc(-c3nn(C)c(OC(F)F)c3Cl)c(F)cc2C#N)cc1OC` [Example 126], the “log P” value is “logP: 3.72^a)”.

(Values after patent US6559102B1, “Substituted 3-aryl-pyrazoles” (Bayer Aktiengesellschaft, priority 1998, dated 2003).)
